From ChEMBL document CHEMBL1137843, “N-4-Substituted-benzyl-N'-tert-butylbenzyl thioureas as vanilloid receptor ligands: investigation on the role of methanesulfonamido group in antagonistic activity” (Bioorg Med Chem Lett, 2004) come the findings set out here.

Structures are written as SMILES. Where only a bound is given, the exact number is not on record here.

As a reminder, the IC50 is the point on the concentration scale where inhibition reaches its midpoint. The EC50 is the midpoint of the concentration-response curve.

What all share (format): functional
The target in experiment [1] is T1, Vanilloid receptor (Rattus norvegicus, UniProt Q9ERZ8+Q9WUD2+O35433). Briefly: In vitro antagonist activity at the vanilloid receptor in rat DRG neurons.
Experiment [2] addresses T1, Vanilloid receptor. Briefly: In vitro antagonist activity at vanilloid receptor in rat dorsal root ganglia (partial at 30 uM).
Experiment [3] has as its target T1, Vanilloid receptor. In words: In vitro agonist activity, increased [Ca2+] influx, at vanilloid receptor of rat dorsal root ganglia.
The target in experiment [4] is T1, Vanilloid receptor. Briefly: In vitro agonist activity, increased [Ca2+] influx, at vanilloid receptor of rat dorsal root ganglia (partial at 30 uM).

`CC(C)(C)c1ccc(C/N=C(\S)NCc2ccc(NS(=O)(=O)C(F)(F)F)cc2)cc1` came in with a concentration for half-maximal inhibition (IC50) against Vanilloid receptor [1] of 12.4 µM.

On Vanilloid receptor [1], `CN(c1ccc(C/N=C(\S)NCc2ccc(C(C)(C)C)cc2)cc1)S(C)(=O)=O` returned an IC50 of 2.5 µM. Take `CC(C)(C)c1ccc(C/N=C(\S)NCc2ccc(C(F)(F)F)cc2)cc1`: the IC50 at Vanilloid receptor [1] came to 12.4 µM.

Turning to `CC(C)(C)c1ccc(C/N=C(\S)NCc2ccc([N+](=O)[O-])cc2)cc1`, the IC50 on Vanilloid receptor [2] was over 30 µM.

Turning to `COc1cc(C/N=C(\S)NCc2ccc(C(C)(C)C)cc2)ccc1OS(C)(=O)=O`, on Vanilloid receptor [1], the concentration for half-maximal inhibition (IC50) is 0.3 µM. On to `CCS(=O)(=O)Nc1ccc(C/N=C(\S)NCc2ccc(C(C)(C)C)cc2)cc1`, for which the half-inhibitory concentration (IC50) against Vanilloid receptor [1] is 1.3 µM. Take `CC(C)(C)c1ccc(C/N=C(\S)NCc2ccc(N)cc2)cc1`: the EC50 at Vanilloid receptor [3] was 7 µM. Regarding `CCCCS(=O)(=O)Nc1ccc(C/N=C(\S)NCc2ccc(C(C)(C)C)cc2)cc1`, the IC50 against Vanilloid receptor [1] was 4.1 µM. As for `CC(C)(C)c1ccc(C/N=C(\S)NCc2ccc(NS(N)(=O)=O)cc2)cc1`, on Vanilloid receptor [1], the IC50 came to 1 µM. This IC50 lies about 4.1-fold lower than the previous one. `CC(C)(C)c1ccc(C/N=C(\S)NCc2ccc(OS(C)(=O)=O)cc2)cc1` had an IC50 against Vanilloid receptor [1] of 9.3 µM. At Vanilloid receptor [4], `CC(C)(C)c1ccc(C/N=C(\S)NCc2ccc(NC(=N)S)cc2)cc1` had a half-maximal effective concentration (EC50) of over 30 µM. In addition, the IC50 on Vanilloid receptor [2] is over 30 µM. As for `CC(C)(C)c1ccc(C/N=C(\S)NCc2ccc(NS(=O)(=O)c3cccs3)cc2)cc1`, the IC50 at Vanilloid receptor [2] is over 30 µM. `CNS(=O)(=O)Nc1ccc(C/N=C(\S)NCc2ccc(C(C)(C)C)cc2)cc1`: at Vanilloid receptor [1], the concentration for half-maximal inhibition (IC50) is 2.5 µM. `CC(C)(C)c1ccc(C/N=C(\S)NCc2ccc(NS(=O)(=O)CC(F)(F)F)cc2)cc1`: on Vanilloid receptor [1], the IC50 is 11.7 µM. On to `CC(C)(C)c1ccc(C/N=C(\S)NCc2ccc(O)cc2)cc1`, for which the EC50 at Vanilloid receptor [4] was over 30 µM. `CC(C)(C)c1ccc(C/N=C(\S)NCc2ccc(NS(=O)(=O)Cc3ccccc3)cc2)cc1` gave an IC50 against Vanilloid receptor [1] of 1.5 µM. Compound `CN(C)S(=O)(=O)Nc1ccc(C/N=C(\S)NCc2ccc(C(C)(C)C)cc2)cc1` registered an IC50 on Vanilloid receptor [1] of 14.6 µM. This IC50 lies about 9.7-fold higher than the previous one. The same measure, in the same setting: for `CC(C)S(=O)(=O)Nc1ccc(C/N=C(\S)NCc2ccc(C(C)(C)C)cc2)cc1` the value was 3.8 µM; for `CCCS(=O)(=O)Nc1ccc(C/N=C(\S)NCc2ccc(C(C)(C)C)cc2)cc1`, 4.5 µM; for `Oc1cc2c(cc1O)CN(C(=S)NCCc1ccc(Cl)cc1)CCC2` [CAPSAZEPINE], 0.65 µM.
